ChEMBL document CHEMBL4043072, “Catechin-Bound Ceanothane-Type Triterpenoid Derivatives from the Roots of Zizyphus jujuba” (J Nat Prod, 2017)

Assay: Inhibition of cell proliferation of activated rat HSC-T6 cells incubated for 24 hrs by MTT assay
Format: functional, cell-based
Details: HSC-T6, 24 h

SMILES	IC50 [µM]
O=C(O[C@@H]1Cc2c(O)cc(O)cc2O[C@@H]1c1cc(O)c(O)c(O)c1)c1cc(O)c(O)c(O)c1 [EPIGALOCATECHIN GALLATE]	31.6
C=C(C)[C@@H]1CC[C@]2(C(=O)O)CC[C@]3(C)[C@H](CC[C@@H]4[C@@]5(C)[C@H]6C(=O)c7c(cc(O)c8c7O[C@@H](c7ccc(O)c(O)c7)[C@@H](O)C8)O[C@@H]6C(C)(C)[C@@H]5CC[C@]43C)[C@@H]12	43.5
